Laboratory results taken from patent publication US6673778B1, “Enzyme inhibitors for metabolic redirection” (The Board of Regents of the University of Nebraska, priority 1996, dated 2004).
In the oligonucleotide strings, read from the 5' end, every base follows the letter of its sugar. An asterisk marks phosphorothioate; unmarked linkages are phosphodiester. Other units and linkages are bracketed, terminal groups are in braces. A string of capitals states the bases alone. d = 2'-deoxy (DNA)

How the values were obtained:
rat CYP3A2 = test: Midazolam sleep time in rats; type: in vivo; conditions: MZ 50 mg/kg i.p.
Experimental: Male Sprague-Dawley rats (Sasco, Omaha) weighing between 210 to 290 grams were used for all studies. The animals were exposed to 12 hour light/dark cycle and fed Purina rat chow and tap water ad libitum.
Sleep time was measured after i.p. injection of 50 mg/kg MZ (Hoffman-La Roche, Nutley, N.J.) at 0 (day 1), 24 (day 2) and […]. The volume of the injection was from 2.0 to 2.4 ml/rat. […] […] Control rats received saline only. Total volume injection was 0.1 ml in saline.

CYP3A2 = test: Erythromycin demethylation (ED) in liver microsomes; type: in vivo, rat
Experimental: Sleep time was measured after i.p. injection of 50 mg/kg MZ (Hoffman-La Roche, Nutley, N.J.) at 0 (day 1), 24 (day 2) and 48 h (day 4). The volume of the injection was from 2.0 to 2.4 ml/rat. […] The rats were treated with 0.25, 0.50 or 1.00 mg antisense ODN i.p. immediately after the animal had regained its righting reflex determined at 0 and 24 h. Control rats received saline only. Total volume injection was 0.1 ml in saline.
Microsomes were prepared, as described by Franklin and Estabrook (cited above) for determination of enzyme level and activity.
Erythromycin demethylation (ED) was used a measure of CYP3A2 enzymatic activity (Gonzalez, Pharmacol. Rev. 40:243-87, 1989). Activity was recorded as micromoles of formaldehyde per milligram of protein per minute.

ATGMYC/PS: PS DNA myc control, SEQ ID NO: 44, 5′-ACGTTGAGGGGCAUCGTCC-3′ (DNA, all phosphorothioate, T or U not given here)
MZ ST (midazolam sleep time) (rat CYP3A2; 1000 μg/day i.p.): 22.8 ± 1.3 min | ED (erythromycin demethylase activity) (CYP3A2; 1000 μg/day i.p.): 113 μmol HCOH/mg/min

AUGM:YC/PMO: PMO myc control, SEQ ID NO: 44, 5′-ACGUUGAGGGGCAUCGUCC-3′ (all phosphorodiamidate morpholino (PMO), T or U not given here)
MZ ST (midazolam sleep time) (rat CYP3A2; 100 μg/day i.p.): 20.6 ± 0.6 min | ED (erythromycin demethylase activity) (CYP3A2; 100 μg/day i.p.): 110 μmol HCOH/mg/min

REV3A2/PMO: PMO reverse control, SEQ ID NO: 43, 5′-UACCUCGACGAAAGUCGAGAGU-3′ (all phosphorodiamidate morpholino (PMO), T or U not given here)
MZ ST (midazolam sleep time) (rat CYP3A2; 100 μg/day i.p.): 20.3 ± 1.3 min | ED (erythromycin demethylase activity) (CYP3A2; 100 μg/day i.p.): 99 μmol HCOH/mg/min

REV3A2/PS: PS DNA reverse control, SEQ ID NO: 43, 5′-TACCTCGACGAAAGTCGAGAGT-3′ (antisense dT*dA*dC*dC*dT*dC*dG*dA*dC*dG*dA*dA*dA*dG*dT*dC*dG*dA*dG*dA*dG*dT)
MZ ST (midazolam sleep time) (rat CYP3A2; 1000 μg/day i.p.): 22.4 ± 0.6 min | ED (erythromycin demethylase activity) (CYP3A2; 1000 μg/day i.p.): 91 μmol HCOH/mg/min
